# Source: PubChem BioAssay AID1963980 (Molecular Pharmacology Branch, DTP, NCI, 2024)
# Tested on: 475296-252-R-J1-PDC spheroid viability
# Assay: Anticancer human tumor 475296-252-R-J1-PDC patient-derived rectal carcinoma cell line growth inhibition [PI3K]
# Settings: spheroids with HUVEC and MSC; for IC50: curve of first compound; for viability, T/C: stronger effect = lower value
# In short: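 Three cell types, namely tumor cells, endothelial cells and mesenchymal stem cells, formed each spheroid. Combinations with four PI3K inhibitors were screened at clinically achievable concentrations decreasing by half-log, and spheroid viability was recorded.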
# [1] = second compound 0.0316 µM, first compound 0.0316 µM
# [2] = second compound 0.0316 µM, first compound 0.1 µM
# [3] = second compound 0.0316 µM, first compound 0.316 µM
# [4] = second compound 0.0316 µM, first compound 1 µM
# [5] = second compound 0.0316 µM, first compound 3.16 µM
# [6] = second compound 0.0316 µM, first compound 10 µM
# [7] = second compound 0.1 µM, first compound 0.0316 µM
# [8] = second compound 0.1 µM, first compound 0.1 µM
# [9] = second compound 0.1 µM, first compound 0.316 µM
# [10] = second compound 0.1 µM, first compound 1 µM
# [11] = second compound 0.1 µM, first compound 3.16 µM
# [12] = second compound 0.1 µM, first compound 10 µM
# [13] = second compound 0.316 µM, first compound 0.0316 µM
# [14] = second compound 0.316 µM, first compound 0.1 µM
# [15] = second compound 0.316 µM, first compound 0.316 µM
# [16] = second compound 0.316 µM, first compound 1 µM
# [17] = second compound 0.316 µM, first compound 3.16 µM
# [18] = second compound 0.316 µM, first compound 10 µM
# [19] = second compound 1 µM, first compound 0.0316 µM
# [20] = second compound 1 µM, first compound 0.1 µM
# [21] = second compound 1 µM, first compound 0.316 µM
# [22] = second compound 1 µM, first compound 1 µM
# [23] = second compound 1 µM, first compound 3.16 µM
# [24] = second compound 1 µM, first compound 10 µM
# [25] = second compound 3.16 µM, first compound 0.0316 µM
# [26] = second compound 3.16 µM, first compound 0.1 µM
# [27] = second compound 3.16 µM, first compound 0.316 µM
# [28] = second compound 3.16 µM, first compound 1 µM
# [29] = second compound 3.16 µM, first compound 3.16 µM
# [30] = second compound 3.16 µM, first compound 10 µM
# [31] = second compound 10 µM, first compound 0.0316 µM
# [32] = second compound 10 µM, first compound 0.1 µM
# [33] = second compound 10 µM, first compound 0.316 µM
# [34] = second compound 10 µM, first compound 1 µM
# [35] = second compound 10 µM, first compound 3.16 µM
# [36] = second compound 10 µM, first compound 10 µM
# [37] = second compound 0.0316 µM, first compound 0.00316 µM
# [38] = second compound 0.0316 µM, first compound 0.01 µM
# [39] = second compound 0.1 µM, first compound 0.00316 µM
# [40] = second compound 0.1 µM, first compound 0.01 µM
# [41] = second compound 0.316 µM, first compound 0.00316 µM
# [42] = second compound 0.316 µM, first compound 0.01 µM
# [43] = second compound 1 µM, first compound 0.00316 µM
# [44] = second compound 1 µM, first compound 0.01 µM
# [45] = second compound 3.16 µM, first compound 0.00316 µM
# [46] = second compound 3.16 µM, first compound 0.01 µM
# [47] = second compound 10 µM, first compound 0.00316 µM
# [48] = second compound 10 µM, first compound 0.01 µM
# 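Also: spheroids exposed to agents for seven days before readout.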
smiles,measurement,setting,value
CC(C)NCC(C(=O)N1CCN(c2ncnc3c2C(C)CC3O)CC1)c1ccc(Cl)cc1 (stereo not drawn) + CC(Nc1ncnc2nc[nH]c12)c1cc2cccc(Cl)c2c(=O)n1-c1ccccc1,IC50,second compound 0.0316 µM,> 10 µM
same,IC50,second compound 0.1 µM,> 10 µM
same,IC50,second compound 0.316 µM,> 10 µM
same,IC50,second compound 1 µM,> 10 µM
same,IC50,second compound 3.16 µM,> 10 µM
same,IC50,second compound 10 µM,> 10 µM
same,"viability, T/C",[1],89.7%
same,"viability, T/C",[2],104%
same,"viability, T/C",[3],80.3%
same,"viability, T/C",[4],77.3%
same,"viability, T/C",[5],56.2%
same,"viability, T/C",[6],65.5%
same,"viability, T/C",[7],101%
same,"viability, T/C",[8],93.2%
same,"viability, T/C",[9],85.2%
same,"viability, T/C",[10],73.3%
same,"viability, T/C",[11],68.8%
same,"viability, T/C",[12],63.2%
same,"viability, T/C",[13],117%
same,"viability, T/C",[14],96.4%
same,"viability, T/C",[15],89.1%
same,"viability, T/C",[16],76%
same,"viability, T/C",[17],59.9%
same,"viability, T/C",[18],66.3%
same,"viability, T/C",[19],100%
same,"viability, T/C",[20],103%
same,"viability, T/C",[21],76%
same,"viability, T/C",[22],61.8%
same,"viability, T/C",[23],54.4%
same,"viability, T/C",[24],65.5%
same,"viability, T/C",[25],93.1%
same,"viability, T/C",[26],85.5%
same,"viability, T/C",[27],82.5%
same,"viability, T/C",[28],76.1%
same,"viability, T/C",[29],67.9%
same,"viability, T/C",[30],50.7%
same,"viability, T/C",[31],98%
same,"viability, T/C",[32],84.1%
same,"viability, T/C",[33],94.7%
same,"viability, T/C",[34],67.1%
same,"viability, T/C",[35],59.6%
same,"viability, T/C",[36],56%
CCN1CCN(Cc2ccc(Nc3ncc(F)c(-c4cc(F)c5nc(C)n(C(C)C)c5c4)n3)nc2)CC1 + CC(Nc1ncnc2nc[nH]c12)c1cc2cccc(Cl)c2c(=O)n1-c1ccccc1,IC50,second compound 0.0316 µM,> 1 µM
same,IC50,second compound 0.1 µM,> 1 µM
same,IC50,second compound 0.316 µM,> 1 µM
same,IC50,second compound 1 µM,> 1 µM
same,IC50,second compound 3.16 µM,> 1 µM
same,IC50,second compound 10 µM,> 1 µM
same,"viability, T/C",[37],87%
same,"viability, T/C",[38],101%
same,"viability, T/C",[1],99.6%
same,"viability, T/C",[2],86.1%
same,"viability, T/C",[3],104%
same,"viability, T/C",[4],92%
same,"viability, T/C",[39],87.8%
same,"viability, T/C",[40],90.9%
same,"viability, T/C",[7],103%
same,"viability, T/C",[8],102%
same,"viability, T/C",[9],105%
same,"viability, T/C",[10],89.1%
same,"viability, T/C",[41],95.1%
same,"viability, T/C",[42],102%
same,"viability, T/C",[13],98.3%
same,"viability, T/C",[14],101%
same,"viability, T/C",[15],89.4%
same,"viability, T/C",[16],81.2%
same,"viability, T/C",[43],102%
same,"viability, T/C",[44],92.3%
same,"viability, T/C",[19],93.8%
same,"viability, T/C",[20],98.5%
same,"viability, T/C",[21],94.6%
same,"viability, T/C",[22],75.1%
same,"viability, T/C",[45],87.2%
same,"viability, T/C",[46],99.3%
same,"viability, T/C",[25],85.1%
same,"viability, T/C",[26],102%
same,"viability, T/C",[27],92.1%
same,"viability, T/C",[28],79.5%
same,"viability, T/C",[47],95.5%
same,"viability, T/C",[48],82.4%
same,"viability, T/C",[31],87.4%
same,"viability, T/C",[32],101%
same,"viability, T/C",[33],96.9%
same,"viability, T/C",[34],70.5%
Cn1ncc(Cl)c1-c1cc(C(=O)NC(CN)Cc2cccc(F)c2)sc1Cl (stereo not drawn) + CC(Nc1ncnc2nc[nH]c12)c1cc2cccc(Cl)c2c(=O)n1-c1ccccc1,IC50,second compound 0.0316 µM,> 10 µM
same,IC50,second compound 0.1 µM,> 10 µM
same,IC50,second compound 0.316 µM,> 10 µM
same,IC50,second compound 1 µM,> 10 µM
same,IC50,second compound 3.16 µM,> 10 µM
same,IC50,second compound 10 µM,> 10 µM
same,"viability, T/C",[1],101%
same,"viability, T/C",[2],83.3%
same,"viability, T/C",[3],60.1%
same,"viability, T/C",[4],71.5%
same,"viability, T/C",[5],71.7%
same,"viability, T/C",[6],61.5%
same,"viability, T/C",[7],95.7%
same,"viability, T/C",[8],80%
same,"viability, T/C",[9],64.9%
same,"viability, T/C",[10],63.6%
same,"viability, T/C",[11],70.2%
same,"viability, T/C",[12],57%
same,"viability, T/C",[13],90.5%
same,"viability, T/C",[14],77.6%
same,"viability, T/C",[15],56.5%
same,"viability, T/C",[16],65.4%
same,"viability, T/C",[17],59.8%
same,"viability, T/C",[18],57.6%
same,"viability, T/C",[19],87.5%
same,"viability, T/C",[20],74.7%
same,"viability, T/C",[21],58.2%
same,"viability, T/C",[22],60.5%
same,"viability, T/C",[23],55.6%
same,"viability, T/C",[24],62.1%
same,"viability, T/C",[25],87%
same,"viability, T/C",[26],80.4%
same,"viability, T/C",[27],51.4%
same,"viability, T/C",[28],50.9%
same,"viability, T/C",[29],60.7%
same,"viability, T/C",[30],52.1%
same,"viability, T/C",[31],92.3%
same,"viability, T/C",[32],77%
same,"viability, T/C",[33],60.5%
same,"viability, T/C",[34],58.8%
same,"viability, T/C",[35],62.8%
same,"viability, T/C",[36],46.7%
Cn1ncnc1[C@H]1c2n[nH]c(=O)c3cc(F)cc(c23)N[C@@H]1c1ccc(F)cc1 + CC(Nc1ncnc2nc[nH]c12)c1cc2cccc(Cl)c2c(=O)n1-c1ccccc1,IC50,second compound 0.0316 µM,> 0.1 µM
same,IC50,second compound 0.1 µM,> 0.1 µM
same,IC50,second compound 0.316 µM,> 0.1 µM
same,IC50,second compound 1 µM,> 0.1 µM
same,IC50,second compound 3.16 µM,> 0.1 µM
same,IC50,second compound 10 µM,> 0.1 µM
same,"viability, T/C","second compound 0.0316 µM, first compound 0.000316 µM",94.1%
same,"viability, T/C","second compound 0.0316 µM, first compound 0.001 µM",94.3%
same,"viability, T/C",[37],87.4%
same,"viability, T/C",[38],90.7%
same,"viability, T/C",[1],107%
same,"viability, T/C",[2],96.8%
same,"viability, T/C","second compound 0.1 µM, first compound 0.000316 µM",96.5%
same,"viability, T/C","second compound 0.1 µM, first compound 0.001 µM",87.5%
same,"viability, T/C",[39],96.8%
same,"viability, T/C",[40],91.6%
same,"viability, T/C",[7],95.7%
same,"viability, T/C",[8],88.9%
same,"viability, T/C","second compound 0.316 µM, first compound 0.000316 µM",91%
same,"viability, T/C","second compound 0.316 µM, first compound 0.001 µM",85.8%
same,"viability, T/C",[41],98.9%
same,"viability, T/C",[42],99.5%
same,"viability, T/C",[13],102%
same,"viability, T/C",[14],106%
same,"viability, T/C","second compound 1 µM, first compound 0.000316 µM",85.8%
same,"viability, T/C","second compound 1 µM, first compound 0.001 µM",103%
same,"viability, T/C",[43],104%
same,"viability, T/C",[44],103%
same,"viability, T/C",[19],112%
same,"viability, T/C",[20],92.7%
same,"viability, T/C","second compound 3.16 µM, first compound 0.000316 µM",89.7%
same,"viability, T/C","second compound 3.16 µM, first compound 0.001 µM",86%
same,"viability, T/C",[45],91%
same,"viability, T/C",[46],80.7%
same,"viability, T/C",[25],90.1%
same,"viability, T/C",[26],89.8%
same,"viability, T/C","second compound 10 µM, first compound 0.000316 µM",97%
same,"viability, T/C","second compound 10 µM, first compound 0.001 µM",85%
same,"viability, T/C",[47],85.4%
same,"viability, T/C",[48],90.7%
same,"viability, T/C",[31],95.2%
same,"viability, T/C",[32],83.7%
